Measurements from US10722520B2, “Heterocyclic compounds and their use in preventing or treating bacterial infections” (MUTABILIS, priority 2016, dated 2020).
Like-named read-outs stand apart in the source and are kept apart here.

Legend:
AmpC (PAE) [1] = biological target: T1, AmpC (PAE) (Pseudomonas aeruginosa, UniProt P24735); assay: biochemical
AmpC (P99) = AmpC (P99) (Enterobacter cloacae, UniProt P05364); conditions: read-out: IC50 β-lactamase AmpC (P99); class (C); nitrocefin 200 μM, 30-min pre-incubation, enzyme 0.2 nM
OXA-15 = OXA-15 (Pseudomonas aeruginosa, UniProt Q51574); conditions: read-out: IC50 β-lactamase OXA-15; class (D); nitrocefin 200 μM, 30-min pre-incubation, enzyme 0.4 nM
AmpC (PAE) [2] = biological target: T1, AmpC (PAE); conditions: read-out: IC50 β-lactamase AmpC (PAE); class (C); nitrocefin 200 μM, 30-min pre-incubation, enzyme 0.4 nM

T1 sequence (P24735 27-397): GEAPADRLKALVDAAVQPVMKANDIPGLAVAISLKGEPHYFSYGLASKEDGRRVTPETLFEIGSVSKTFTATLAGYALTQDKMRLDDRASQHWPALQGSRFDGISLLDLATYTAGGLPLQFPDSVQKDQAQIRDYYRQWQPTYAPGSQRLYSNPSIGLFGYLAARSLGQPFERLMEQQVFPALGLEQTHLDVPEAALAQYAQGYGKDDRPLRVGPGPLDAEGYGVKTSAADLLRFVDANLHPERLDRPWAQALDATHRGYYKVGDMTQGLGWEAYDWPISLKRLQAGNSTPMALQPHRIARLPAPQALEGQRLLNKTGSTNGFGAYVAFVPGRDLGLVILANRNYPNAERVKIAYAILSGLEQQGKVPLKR
Sequence of AmpC (P99) (P05364 21-381): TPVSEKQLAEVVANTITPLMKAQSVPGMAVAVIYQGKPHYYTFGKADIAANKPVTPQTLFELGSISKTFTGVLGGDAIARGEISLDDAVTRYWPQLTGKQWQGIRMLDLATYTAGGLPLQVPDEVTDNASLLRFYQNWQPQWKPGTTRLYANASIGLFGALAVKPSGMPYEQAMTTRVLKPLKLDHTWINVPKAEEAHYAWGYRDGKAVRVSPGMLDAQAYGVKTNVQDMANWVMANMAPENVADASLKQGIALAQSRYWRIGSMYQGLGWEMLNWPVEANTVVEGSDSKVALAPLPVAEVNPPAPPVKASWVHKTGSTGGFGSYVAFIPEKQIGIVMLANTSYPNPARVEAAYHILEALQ
Sequence of OXA-15 (Q51574 22-275): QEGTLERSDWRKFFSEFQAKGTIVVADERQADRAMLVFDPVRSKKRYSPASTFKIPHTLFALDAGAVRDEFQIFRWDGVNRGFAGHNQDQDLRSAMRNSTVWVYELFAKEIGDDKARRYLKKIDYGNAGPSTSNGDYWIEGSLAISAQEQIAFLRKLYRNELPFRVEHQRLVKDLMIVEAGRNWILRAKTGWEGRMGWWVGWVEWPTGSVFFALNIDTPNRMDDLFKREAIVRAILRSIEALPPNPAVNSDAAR

## O=C1N2CC(n3ccsc3=O)=CC(C2)N1OS(=O)(=O)[O-].[Na+] (centres unmarked) [Example 1, Sodium [7-oxo-3-(2-oxo-thiazol-3-yl)-1,6-diaza-bicyclo[3.2.1]oct-3-en-6-yl]sulfate]
AmpC (PAE) [1]
  IC50: 120 nM

## O=C1N2CC(n3ccnn3)=CC(C2)N1OS(=O)(=O)[O-].[Na+] (centres unmarked) [Example 2, sodium [7-oxo-3-(triazol-1-yl)-1,6-diazabicyclo[3.2.1]oct-3-en-6-yl]sulfate]
AmpC (P99)
  IC50: 10 nM
OXA-15
  IC50: 40 nM
AmpC (PAE) [2]
  IC50: 150 nM

## O=C1N2CC(n3cncn3)=CC(C2)N1OS(=O)(=O)[O-].[Na+] (centres unmarked) [Example 5, sodium [7-oxo-3-(1,2,4-triazol-1-yl)-1,6-diazabicyclo[3.2.1]oct-3-en-6-yl]sulfate]
AmpC (PAE) [1]
  IC50: 140 nM
